ChEMBL document CHEMBL3046757, “Design, synthesis, and biological evaluation of novel pyridine acid esters of podophyllotoxin and esters of 4-demethylepipodophyllotoxin” (2007)

Legend:
Assay type in all cases: functional
A549 [1] = experiment: Growth inhibition of Homo sapiens (human) A549 cells at 10^-7 mol/l after 72 hr by MTT assay; conditions: A549, 72 h, read-out: GI
A549 [2] = experiment: Growth inhibition of Homo sapiens (human) A549 cells at 10^-8 mol/l after 72 hr by MTT assay; conditions: A549, 72 h, read-out: GI
A549 [3] = experiment: Growth inhibition of Homo sapiens (human) A549 cells at 10^-5 mol/l after 72 hr by MTT assay; conditions: A549, 72 h, read-out: GI
A549 [4] = experiment: Growth inhibition of Homo sapiens (human) A549 cells at 10^-6 mol/l after 72 hr by MTT assay; conditions: A549, 72 h, read-out: GI
A549 [5] = experiment: Growth inhibition of Homo sapiens (human) A549 cells at 10^-4 mol/l after 72 hr by MTT assay; conditions: A549, 72 h, read-out: GI
P388 [6] = experiment: Growth inhibition of Mus musculus (mouse) P388 cells at 10^-7 mol/l after 72 hr by MTT assay; conditions: P388, 72 h, read-out: GI
P388 [7] = experiment: Growth inhibition of Mus musculus (mouse) P388 cells at 10^-8 mol/l after 72 hr by MTT assay; conditions: P388, 72 h, read-out: GI
P388 [8] = experiment: Growth inhibition of Mus musculus (mouse) P388 cells at 10^-5 mol/l after 72 hr by MTT assay; conditions: P388, 72 h, read-out: GI
P388 [9] = experiment: Growth inhibition of Mus musculus (mouse) P388 cells at 10^-6 mol/l after 72 hr by MTT assay; conditions: P388, 72 h, read-out: GI
P388 [10] = experiment: Growth inhibition of Mus musculus (mouse) P388 cells at 10^-4 mol/l after 72 hr by MTT assay; conditions: P388, 72 h, read-out: GI

SMILES	inhibition of growth at 0.1 µM (A549 [1])	inhibition of growth at 0.01 µM (A549 [2])	inhibition of growth at 10 µM (A549 [3])	inhibition of growth at 1 µM (A549 [4])	inhibition of growth at 100 µM (A549 [5])	inhibition of growth at 0.1 µM (P388 [6])	inhibition of growth at 0.01 µM (P388 [7])	inhibition of growth at 10 µM (P388 [8])	inhibition of growth at 1 µM (P388 [9])	inhibition of growth at 100 µM (P388 [10])
COc1cc([C@@H]2c3cc4c(cc3[C@@H](OC(=O)c3cccnc3Cl)[C@H]3COC(=O)[C@H]23)OCO4)cc(OC)c1O [4-O-DEMETHYLEPIPODOPHYLLOTOXINYL-2'-CHLORONICOTINATE]	62.5%	56.6%	78.1%	69.8%	92.5%	12.8%	9.1%	84.7%	72.3%	100%
COc1cc([C@@H]2c3cc4c(cc3[C@@H](OC(=O)c3cncc(Br)c3)[C@H]3COC(=O)[C@H]23)OCO4)cc(OC)c1O [4-O-DEMETHYLEPIPODOPHYLLOTOXINYL-5'-BROMONICOTINATE]	74.6%	71%	82%	78.4%	87.3%	63.5%	2%	87.4%	66.1%	100%
COc1cc([C@@H]2c3cc4c(cc3[C@@H](OC(=O)c3ccc(Cl)nc3)[C@H]3COC(=O)[C@H]23)OCO4)cc(OC)c1O [4-O-DEMETHYLEPIPODOPHYLLOTOXINYL-6'-CHLORONICOTINATE]	70.7%	59.3%	93.9%	72.5%	85.4%	28.4%	20.2%	81.1%	73.4%	100%
COc1cc([C@@H]2c3cc4c(cc3[C@@H](OC(=O)c3ccncc3)[C@H]3COC(=O)[C@H]23)OCO4)cc(OC)c1O [4-O-DEMETHYLEPIPODOPHYLLOTOXINYL-ISONICOTINATE]	66.1%	54%	67.8%	66.4%	95.1%	53.5%	19.8%	86.9%	76.5%	100%
COc1cc([C@@H]2c3cc4c(cc3[C@@H](OC(=O)c3cccnc3)[C@H]3COC(=O)[C@H]23)OCO4)cc(OC)c1O [4-O-DEMETHYLEPIPODOPHYLLOTOXINYL-NICOTINATE]	72.6%	71.9%	79.9%	74%	91.4%	71.4%	4.4%	87.9%	72.1%	100%
COc1cc([C@@H]2c3cc4c(cc3[C@@H](OC(=O)c3ccccn3)[C@H]3COC(=O)[C@H]23)OCO4)cc(OC)c1O [4-O-DEMETHYLEPIPODOPHYLLOTOXINYL-PICOLINATE]	56%	53.7%	78.8%	73.7%	91.6%	68%	39.7%	88.6%	73.5%	100%
COc1cc([C@@H]2c3cc4c(cc3[C@H](OC(=O)c3cccnc3Cl)[C@H]3COC(=O)[C@H]23)OCO4)cc(OC)c1OC [4-O-PODOPHYLLOTOXINYL-2'-CHLORONICOTINATE]	80.4%	79.5%	82.5%	81.3%	86.6%	84.7%	80.6%	85.8%	85%	87.3%
COc1cc([C@@H]2c3cc4c(cc3[C@H](OC(=O)c3cncc(Br)c3)[C@H]3COC(=O)[C@H]23)OCO4)cc(OC)c1OC [4-O-PODOPHYLLOTOXINYL-5'-BROMONICOTINATE]	80.9%	77.3%	84.7%	82.7%	91.1%	82.8%	80.6%	87.4%	85%	97.7%
COc1cc([C@@H]2c3cc4c(cc3[C@H](OC(=O)c3ccc(Cl)nc3)[C@H]3COC(=O)[C@H]23)OCO4)cc(OC)c1OC [4-O-PODOPHYLLOTOXINYL-6'-CHLORONICOTINATE]	83%	81.5%	87%	85.9%	87.9%	84.3%	80.1%	88.3%	85%	92.1%
COc1cc([C@@H]2c3cc4c(cc3[C@H](OC(=O)c3ccncc3)[C@H]3COC(=O)[C@H]23)OCO4)cc(OC)c1OC [4-O-PODOPHYLLOTOXINYL-ISONICOTINATE]	81.8%	81.4%	84.4%	82.6%	89.2%	84.8%	83.8%	85.1%	84.8%	89%
COc1cc([C@@H]2c3cc4c(cc3[C@H](OC(=O)c3cccnc3)[C@H]3COC(=O)[C@H]23)OCO4)cc(OC)c1OC [4-O-PODOPHYLLOTOXINYL-NICOTINATE]	82.2%	81%	84.9%	82.8%	87.5%	83.8%	83.4%	84.8%	84.1%	87.5%
COc1cc([C@@H]2c3cc4c(cc3[C@H](OC(=O)c3ccccn3)[C@H]3COC(=O)[C@H]23)OCO4)cc(OC)c1OC [4-O-PODOPHYLLOTOXINYL-PICOLINATE]	81.8%	81.4%	84%	82.3%	89.2%	85.5%	85.4%	87%	86%	87.7%
COc1cc([C@@H]2c3cc4c(cc3[C@@H](O[C@@H]3O[C@@H]5CO[C@@H](C)O[C@H]5[C@H](O)[C@H]3O)[C@H]3COC(=O)[C@H]23)OCO4)cc(OC)c1O [ETOPOSIDE]	0%	0%	50.7%	45%	97.5%	6%	1.8%	70.6%	25.5%	99.2%
